Laboratory results published in patent US7923461B2, “TNF-α production inhibitors” (Santen Pharmaceutical Co., Ltd., priority 2000, dated 2011).
Structures can show the parent of a compound that is named as a salt.

tested on: TNF-α production; experiment: Inhibitory effects on TNF-α production induced by lipopolysaccharide (LPS) stimulation, in vivo test; parameters: species or system rat; settings: Rattus norvegicus, 2 h; female rats, oral administration of 3 mg/kg immediately after LPS to footpad; plasma TNF-α (ELISA) two hours after LPS; read-out: Inhibition rate (%) of TNF-α production
Procedure: Inhibitory effects on TNF-α production induced by lipopolysaccharide (LPS) stimulation were studied by in vivo tests according to the method of Tsuji et al. (Inflamm res. 46 (1997) 193-198).
Female rats (five per group), body weight of about 200 g, about eight weeks old, were used as test animals. LPS from Salmonella was dissolved in physiological saline to prepare an LPS solution (1 mg/ml). Each test substance was dissolved or uniformly suspended in a 1% methylcellulose solution to give test substance-preparation liquids.
The above-mentioned LPS solution (0.5 ml/kg) was administered to a footpad of the rat. Immediately after the LPS administration, the test substance-preparation liquid (containing 10 mg/kg or 3 mg/kg test substance) was orally administered. Two hours after the LPS administration, blood was collected from abdominal aorta and was centrifuged at 4° C. and 3000 rpm for ten minutes. TNF-α levels in the obtained plasma were measured with a rat TNF-α-specific ELISA kit. TNF-α was not observed in the plasma with respect to an LPS-non-administered group (control).
Inhibition rates of TNF-α production of the test substances were determined by the following equation. Inhibition rate (%)=[(A−B)/A]×100 A: TNF-α level in plasma of test substance-nonadministered group B: TNF-α level in plasma of test substance-administered group (Results)

With `C=CCCCCCCN(CCCCCCC=C)C(=O)NCCCc1ccncc1` [Compound No. 1-95, 1,1-Di(7-octenyl)-3-[3-(4-pyridyl)propyl]urea] as the compound, how does the inhibition in vivo at 3 mg/kg read?
Its inhibition in vivo at 3 mg/kg is 70.8%.

Which inhibition in vivo at 3 mg/kg does the source give for `CCCCCN(CCC12CC3CC(CC(C3)C1)C2)C(=O)NC/C=C\c1ccncc1` [Compound No. 1-111, (Z)-1-[2-(1-Adamantyl)ethyl]-1-pentyl-3-[3-(4-pyridyl)-2-propenyl]urea] here?
Its inhibition in vivo at 3 mg/kg is 85.1%.

Which inhibition in vivo at 3 mg/kg does the source give for `CCCCCN(CCc1ccccc1)C(=O)CCCCc1ccncc1` [Compound No. 2-9, 5-(4-Pyridyl)valeric acid N-pentyl-N-phenethylamide] here?
Its inhibition in vivo at 3 mg/kg is 84.5%.

Which inhibition in vivo at 3 mg/kg does the source give for `CCCCCN(CCC12CC3CC(CC(C3)C1)C2)C(=O)CCCCc1ccncc1` [Compound No. 2-14, 5-(4-Pyridyl)valeric acid N-[2-(1-adamantyl)ethyl]-N-pentylamide] here?
Its inhibition in vivo at 3 mg/kg is 87.3%.

For `CCCCCN(CCC12CC3CC(CC(C3)C1)C2)C(=O)CCSCc1ccncc1` [Compound No. 2-15, 3-(4-Pyridylmethylthio)propionic acid N-[2-(1-adamantyl)ethyl]-N-pentylamide], which inhibition in vivo at 3 mg/kg is on record?
The inhibition in vivo at 3 mg/kg was 68.1%.

For `CCCCCN(CCC12CC3CC(CC(C3)C1)C2)C(=O)CSCCc1ccncc1` [Compound No. 2-18, 2-[2-(4-Pyridyl)ethylthio]acetic acid N-[2-(1-adamantyl)ethyl]-N-pentylamide], which inhibition in vivo at 3 mg/kg is on record?
The inhibition in vivo at 3 mg/kg was 87.3%.

Which inhibition in vivo at 3 mg/kg does the source give for `CCCCCN(CCC12CC3CC(CC(C3)C1)C2)C(=O)CCCCCc1ccncc1` [Compound No. 2-20, 6-(4-Pyridyl)caproic acid N-[2-(1-adamantyl)ethyl]-N-pentylamide] here?
Its inhibition in vivo at 3 mg/kg is 82.1%.

With `CCCCCN(CCC12CC3CC(CC(C3)C1)C2)C(=O)C(N)CSCc1ccncc1` (stereo not drawn) [Compound No. 3-4, 2-Amino-3-(4-pyridylmethylthio)propionic acid N-[2-(1-adamantyl)ethyl]-N-pentylamide dihydrochloride] as the compound, how does the inhibition in vivo at 3 mg/kg read?
Its inhibition in vivo at 3 mg/kg is 76.1%.

With `CCCCCN(CCC12CC3CC(CC(C3)C1)C2)C(=O)NCCCc1cc[n+](C)cc1` [Compound No. 4-1, 4-[3-[3-[2-(1-Adamantyl)ethyl]-3-pentylureido]propyl]-1-methylpyridinium iodide] as the compound, how does the inhibition in vivo at 3 mg/kg read?
Its inhibition in vivo at 3 mg/kg is 42.8%.

Which inhibition in vivo at 3 mg/kg does the source give for `O=C(OCCCc1ccncc1)N(CCC(F)(F)F)CCC12CC3CC(CC(C3)C1)C2` [Compound No. 5-4, 3-(4-Pyridyl)propyl N-[2-(1-adamantyl)ethyl]-N-(3,3,3-trifluoropropyl)carbamate] here?
The inhibition in vivo at 3 mg/kg was 62.6%.

For `CCCCCN(CCC12CC3CC(CC(C3)C1)C2)C(=O)OCC(C)Cc1ccncc1` (stereo not drawn) [Compound No. 5-6, 2-Methyl-3-(4-pyridyl)propyl N-[2-(1-adamantyl)ethyl]-N-pentylcarbamate], which inhibition in vivo at 3 mg/kg is on record?
Its inhibition in vivo at 3 mg/kg is 41.7%.

Which inhibition in vivo at 3 mg/kg does the source give for `CCCCCN(CCC12CC3CC(CC(C3)C1)C2)C(=O)NCCC(O)c1ccncc1` (stereo not drawn) [Compound No. 14-1, 1-[2-(1-Adamantyl)ethyl]-3-[3-hydroxy-3-(4-pyridyl)propyl]-1-pentylurea] here?
Its inhibition in vivo at 3 mg/kg is 36.3%.

Which inhibition in vivo at 3 mg/kg does the source give for `CCCCCN(CCC12CC3CC(CC(C3)C1)C2)C(=O)NCCCc1cc[n+]([O-])cc1` [Compound No. 16-1, 4-[3-[3-[2-(1-Adamantyl)ethyl]-3-pentylureido]propyl]pyridine N-oxide] here?
The inhibition in vivo at 3 mg/kg was 74.3%.

With `CCCCCN(CCC12CC3CC(CC(C3)C1)C2)C(=O)COCCc1ccncc1` [Compound No. 18-3, 2-[2-(4-Pyridyl)ethoxy]acetic acid N-[2-(1-adamantyl)ethyl]-N-pentylamide] as the compound, how does the inhibition in vivo at 3 mg/kg read?
The inhibition in vivo at 3 mg/kg was 56.6%.

For `CCCCCN(CCC12CC3CC(CC(C3)C1)C2)C(=O)NCCC(=O)c1ccncc1` [Compound No. 31-1, 1-[2-(1-Adamantyl)ethyl]-3-[3-oxo-3-(4-pyridyl)propyl]-1-pentylurea], which inhibition in vivo at 3 mg/kg is on record?
Its inhibition in vivo at 3 mg/kg is 46.8%.

same assay, conditions: Rattus norvegicus, 2 h; female rats, oral administration of 10 mg/kg immediately after LPS to footpad; plasma TNF-α (ELISA) two hours after LPS; read-out: Inhibition rate (%) of TNF-α production

With `CC(CNC(=O)N(CCN(C)C(=O)OC(C)(C)C)CCC12CC3CC(CC(C3)C1)C2)Cc1ccncc1` (single isomer, unassigned; (+)) [Compound No. 1-139, (+)-1-[2-(1-Adamantyl)ethyl]-1-[2-[N-(t-butoxycarbonyl)-N-methylamino]ethyl]-3-[2-methyl-3-(4-pyridyl)propyl]urea] as the compound, how does the inhibition in vivo at 10 mg/kg read?
Its inhibition in vivo at 10 mg/kg is 94.1%.

Which inhibition in vivo at 10 mg/kg does the source give for `COCCN(CCC12CC3CC(CC(C3)C1)C2)C(=O)NCCCc1ccncc1` [Compound No. 1-18, 1-[2-(1-Adamantyl)ethyl]-1-(2-methoxyethyl)-3-[3-(4-pyridyl)propyl]urea] here?
The inhibition in vivo at 10 mg/kg was 78.9%.

Which inhibition in vivo at 10 mg/kg does the source give for `CCCCCN(CCC1CCCCC1)C(=O)NCCCc1ccncc1` [Compound No. 1-44, 1-(2-Cyclohexylethyl)-1-pentyl-3-[3-(4-pyridyl)propyl]urea] here?
Its inhibition in vivo at 10 mg/kg is 93.7%.

With `CCCCCN(CCc1ccccc1)C(=O)NCCCc1ccncc1` [Compound No. 1-45, 1-Pentyl-1-phenethyl-3-[3-(4-pyridyl)propyl]urea] as the compound, how does the inhibition in vivo at 10 mg/kg read?
Its inhibition in vivo at 10 mg/kg is 91.1%.

Which inhibition in vivo at 10 mg/kg does the source give for `CCCCCN(CCc1ccccn1)C(=O)NCCCc1ccncc1` [Compound No. 1-55, 1-Pentyl-1-[2-(2-pyridyl)ethyl]-3-[3-(4-pyridyl)propyl]urea] here?
The inhibition in vivo at 10 mg/kg was 78.1%.

For `CCCN(CCC12CC3CC(CC(C3)C1)C2)C(=O)CCCCc1ccncc1` [Compound No. 2-1, 5-(4-Pyridyl)valeric acid N-[2-(1-adamantyl)ethyl]-N-propylamide], which inhibition in vivo at 10 mg/kg is on record?
The inhibition in vivo at 10 mg/kg was 91.5%.

For `CCCCCN(CC12CC3CC(CC(C3)C1)C2)C(=O)CCCCc1ccncc1` [Compound No. 2-3, 5-(4-Pyridyl)valeric acid N-(1-adamantyl)methyl-N-pentylamide], which inhibition in vivo at 10 mg/kg is on record?
The inhibition in vivo at 10 mg/kg was 51.8%.

With `O=C1CCN(CCC23CC4CC(CC(C4)C2)C3)C(=O)N1CCCc1ccncc1` [Compound No. 6-1, 1-[2-(1-Adamantyl)ethyl]-3-[3-(4-pyridyl)propyl]hexahydro-2,4-pyrimidinedione hydrochloride] as the compound, how does the inhibition in vivo at 10 mg/kg read?
The inhibition in vivo at 10 mg/kg was 50.5%.

For `CCCCCN(CCC12CC3CC(CC(C3)C1)C2)C(=S)NCCCc1ccncc1` [Compound No. 7-1, 1-[2-(1-Adamantyl)ethyl]-1-pentyl-3-[3-(4-pyridyl)propyl]thiourea], which inhibition in vivo at 10 mg/kg is on record?
Its inhibition in vivo at 10 mg/kg is 71.5%.

Which inhibition in vivo at 10 mg/kg does the source give for `CN(CCCc1ccncc1)C(=O)N(C)CCC12CC3CC(CC(C3)C1)C2` [Compound No. 11-1, [2-(1-Adamantyl)ethyl]-1,3-dimethyl-3-[3-(4-pyridyl)propyl]urea] here?
Its inhibition in vivo at 10 mg/kg is 50.8%.

same assay, conditions: female rats, oral administration of 3 mg/kg immediately after LPS to footpad; plasma TNF-α (ELISA) two hours after LPS

Which “Inhibition rate (%) of TNF-α production” value does the source give for `CCCCCN(CCN(C)C(=O)OCc1ccccc1)C(=O)NCCCc1ccncc1` [Compound No. 1-78, [2-(N-Benzyloxycarbonyl-N-methylamino)ethyl]-1-pentyl-3-[3-(4-pyridyl)propyl]urea] here?
The value was 61.5%.

Which “Inhibition rate (%) of TNF-α production” value does the source give for `CN(CCN(CCC12CC3CC(CC(C3)C1)C2)C(=O)CCCCc1ccncc1)C(=O)OC(C)(C)C` [Compound No. 2-7, 5-(4-Pyridyl)valeric acid N-[2-(1-adamantyl)ethyl]-N-[2-[N-(tbutoxycarbonyl)-N′-methylamino]ethyl]amide] here?
The value was 78.7%.

With `CCCCCN(CCC1CCCCC1)C(=O)CCCCc1ccncc1` [Compound No. 2-11, 5-(4-Pyridyl)valeric acid N-(2-cyclohexylethyl)-NY-pentylamide] as the compound, how does the “Inhibition rate (%) of TNF-α production” value read?
The value was 53.5%.

For `CCCN(CCCC12CC3CC(CC(C3)C1)C2)C(=O)OCCCc1ccncc1` [Compound No. 5-3, 3-(4-Pyridyl)propyl N [3-(1-adamantyl)propyl]-N-propylcarbamate], which “Inhibition rate (%) of TNF-α production” value is on record?
The value was 49.4%.

With `CN(CCN(CCC12CC3CC(CC(C3)C1)C2)C(=O)OCCCc1ccncc1)C(=O)OC(C)(C)C` [Compound No. 5-5, 3-(4-Pyridyl)propyl N-[2-(1-adamantyl)ethyl]-N-[2-[N′-(tbutoxycarbonyl)-N′-methylamino]ethyl]carbamate] as the compound, how does the “Inhibition rate (%) of TNF-α production” value read?
Its value is 42.8%.

With `CN(CCN(CCC12CC3CC(CC(C3)C1)C2)C(=O)CCCCc1ccncc1)C(=O)OCc1ccccc1` [Compound No. 10-16, 5-(4-Pyridyl)valeric acid N-[2-(1-adamantyl)ethyl]-N-[2-(N′-benzyloxycarbonyl-N′-methylamino)ethyl]amide] as the compound, how does the “Inhibition rate (%) of TNF-α production” value read?
Its value is 62.8%.

Which “Inhibition rate (%) of TNF-α production” value does the source give for `CN(CCN(CCC12CC3CC(CC(C3)C1)C2)C(=O)CCCCc1ccncc1)C(=O)CC(C)(C)C` [Compound No. 10-17, 5-(4-Pyridyl)valeric acid N-[2-(1-adamantyl)ethyl]-N-[2-[N′-(3,3-dimethylbutyryl)-N′-methylamino]ethyl]amide] here?
The value was 53.8%.

Which “Inhibition rate (%) of TNF-α production” value does the source give for `CCCCCN(CCC12CC3CC(CC(C3)C1)C2)C(=O)CNCCc1ccncc1` [Compound No. 18-1, 2-[2-(4-Pyridyl)ethylamino]acetic acid N-[2-(1-adamantyl)ethyl]1-N-pentylamide] here?
The value was 55.7%.

With `CCCCCN(CCC12CC3CC(CC(C3)C1)C2)C(=O)NCCCc1ccnc(C)c1` [Compound No. 27-1, 1-[2-(1-Adamantyl)ethyl]-3-[3-[4-(2-methyl)pyridyl]propyl]-1-pentylurea] as the compound, how does the “Inhibition rate (%) of TNF-α production” value read?
Its value is 68.6%.

tested on: not given; experiment: not given; settings: not given

For `CC(CNC(=O)N(CCN(C)C(=O)OC(C)(C)C)CCC12CC3CC(CC(C3)C1)C2)Cc1ccncc1` (single isomer, unassigned; (+)) [Compound No. 1-139, (+)-1-[2-(1-Adamantyl)ethyl]-1-[2-[N-(t-butoxycarbonyl)-N-methylamino]ethyl]-3-[2-methyl-3-(4-pyridyl)propyl]urea], which melting point is on record?
Its melting point is 122.7 to 123.7 °C.

With `COCCN(CCC12CC3CC(CC(C3)C1)C2)C(=O)NCCCc1ccncc1` [Compound No. 1-18, 1-[2-(1-Adamantyl)ethyl]-1-(2-methoxyethyl)-3-[3-(4-pyridyl)propyl]urea] as the compound, how does the melting point read?
Its melting point is 101.5 to 104.5 °C.
